Experimental data taken from ChEMBL document CHEMBL1201862, “PubChem BioAssay data set” (2004).
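These data come from cells grown in 96-well plates and exposed to compound for 48 hours at five concentrations. GI50 = concentration required for 50% inhibition of growth.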 Activity calls are given as the source filed them. No stated cut-off is given here; in the data, active = GI50 up to about 1.1 µM and inactive = higher.

Assays:
Assay in all cases: NCI tumour cell line growth inhibition, 48 h
786-0 = test system: 786-0
A498 = test system: A498
A549 = test system: A549
ACHN = test system: ACHN
BT-549 = test system: BT-549
CAKI-1 = test system: CAKI-1
COLO 205 = test system: COLO 205
DU-145 = test system: DU-145
HCC 2998 = test system: HCC 2998
HCT-116 = test system: HCT-116
HCT-15 = test system: HCT-15
HOP-62 = test system: HOP-62
Hs-578T = test system: Hs-578T
K562 = test system: K562
KM12 = test system: KM12
LOX IMVI = test system: LOX IMVI
M14 = test system: M14
MCF7 = test system: MCF7
MDA-MB-231 = test system: MDA-MB-231
MDA-MB-435 = test system: MDA-MB-435
MDA-N = test system: MDA-N
MOLT-4 = test system: MOLT-4
NCI-H226 = test system: NCI-H226
NCI-H23 = test system: NCI-H23
NCI-H460 = test system: NCI-H460
NCI/ADR-RES = test system: NCI/ADR-RES
OVCAR-3 = test system: OVCAR-3
OVCAR-4 = test system: OVCAR-4
OVCAR-5 = test system: OVCAR-5
OVCAR-8 = test system: OVCAR-8
PC-3 = test system: PC-3
RPMI-8226 = test system: RPMI-8226
RXF 393 = test system: RXF 393
SF-268 = test system: SF-268
SF-295 = test system: SF-295
SK-MEL-28 = test system: SK-MEL-28
SK-MEL-2 = test system: SK-MEL-2
SK-OV-3 = test system: SK-OV-3
SN12C = test system: SN12C
SNB-19 = test system: SNB-19
SNB-75 = test system: SNB-75
SR = test system: SR
SW-620 = test system: SW-620
T47D = test system: T47D
TK-10 = test system: TK-10
U-251 = test system: U-251
UACC-257 = test system: UACC-257
UACC-62 = test system: UACC-62
UO-31 = test system: UO-31
EKVX = test system: EKVX
HOP-92 = test system: HOP-92
HT-29 = test system: HT-29
IGROV-1 = test system: IGROV-1
Malme-3M = test system: Malme-3M
NCI-H522 = test system: NCI-H522
SF-539 = test system: SF-539
SK-MEL-5 = test system: SK-MEL-5
CCRF-CEM = test system: CCRF-CEM

In the case of `COc1ccc(N2C(=O)C3CC4=CC(=O)C[C@H]4[C@H]32)cc1` (stereo not given in full), the GI50 (786-0) is reported as 26.3 µM (inactive), the GI50 (A498) is reported as > 100 µM (inactive) and the GI50 (A549) is reported as > 100 µM (inactive). For the same compound, the GI50 (ACHN) was 53.7 µM (inactive), the GI50 (BT-549) was 14.9 µM (inactive) and the GI50 (CAKI-1) was 23.4 µM (inactive). For the same compound, the GI50 (COLO 205) was 52.5 µM (inactive), the GI50 (DU-145) was 75.9 µM (inactive) and the GI50 (HCC 2998) was 45.1 µM (inactive). For the same compound, the GI50 (HCT-116) was 20.7 µM (inactive), the GI50 (HCT-15) was 40.9 µM and the GI50 (HOP-62) was 44.9 µM (inactive). The GI50 (Hs-578T) was > 100 µM (inactive), the GI50 (K562) was 64.9 µM (inactive) and the GI50 (KM12) was 44 µM (inactive). For the same compound, the GI50 (LOX IMVI) was 53.1 µM (inactive), the GI50 (M14) was > 100 µM (inactive) and the GI50 (MCF7) was 67.6 µM (inactive). For the same compound, the GI50 (MDA-MB-231) was > 100 µM (inactive), the GI50 (MDA-MB-435) was 22.9 µM (inactive) and the GI50 (MDA-N) was 18.5 µM (inactive). The GI50 (MOLT-4) was > 100 µM (inactive), the GI50 (NCI-H226) was 42.8 µM (inactive) and the GI50 (NCI-H23) was > 100 µM (inactive). The GI50 (NCI-H460) was 58.2 µM (inactive), the GI50 (NCI/ADR-RES) was 44.1 µM (inactive) and the GI50 (OVCAR-3) was 57.7 µM (inactive). The GI50 (OVCAR-4) was > 100 µM (inactive), the GI50 (OVCAR-5) was 88.1 µM (inactive) and the GI50 (OVCAR-8) was 49.4 µM (inactive). The GI50 (PC-3) was 28.4 µM (inactive), the GI50 (RPMI-8226) was 59.8 µM (inactive) and the GI50 (RXF 393) was 82 µM (inactive). For the same compound, the GI50 (SF-268) was > 100 µM (inactive), the GI50 (SF-295) was > 100 µM (inactive) and the GI50 (SK-MEL-28) was > 100 µM (inactive). The GI50 (SK-MEL-2) was > 100 µM (inactive), the GI50 (SK-OV-3) was > 100 µM (inactive) and the GI50 (SN12C) was 29.4 µM (inactive). For the same compound, the GI50 (SNB-19) was > 100 µM (inactive), the GI50 (SNB-75) was 93.5 µM (inactive) and the GI50 (SR) was 55.7 µM (inactive). For the same compound, the GI50 (SW-620) was 66.1 µM (inactive), the GI50 (T47D) was > 100 µM (inactive) and the GI50 (TK-10) was 58.7 µM (inactive). For the same compound, the GI50 (U-251) was 67.9 µM (inactive), the GI50 (UACC-257) was 64.9 µM (inactive) and the GI50 (UACC-62) was 45.2 µM (inactive). The GI50 (UO-31) was 37.2 µM (inactive).
In the case of `CC(=O)OC(C(=O)NNC(=O)OC(C)(C)C)c1ccccc1` (stereo not given), the GI50 (786-0) is reported as > 100 µM (inactive), the GI50 (A549) is reported as > 100 µM (inactive) and the GI50 (ACHN) is reported as > 100 µM (inactive). The GI50 (BT-549) was > 100 µM (inactive), the GI50 (CAKI-1) was > 100 µM (inactive) and the GI50 (COLO 205) was > 100 µM (inactive). The GI50 (DU-145) was > 100 µM (inactive), the GI50 (EKVX) was > 100 µM (inactive) and the GI50 (HCC 2998) was > 100 µM (inactive). The GI50 (HCT-15) was > 100 µM, the GI50 (HOP-62) was > 100 µM (inactive) and the GI50 (HOP-92) was > 100 µM (inactive). For the same compound, the GI50 (HT-29) was > 100 µM (inactive), the GI50 (Hs-578T) was > 100 µM (inactive) and the GI50 (IGROV-1) was > 100 µM (inactive). The GI50 (K562) was > 100 µM (inactive), the GI50 (KM12) was > 100 µM (inactive) and the GI50 (M14) was > 100 µM (inactive). For the same compound, the GI50 (MCF7) was > 100 µM (inactive), the GI50 (MDA-MB-231) was > 100 µM (inactive) and the GI50 (MDA-MB-435) was > 100 µM (inactive). For the same compound, the GI50 (MDA-N) was > 100 µM (inactive), the GI50 (MOLT-4) was > 100 µM (inactive) and the GI50 (Malme-3M) was > 100 µM (inactive). For the same compound, the GI50 (NCI-H226) was > 100 µM (inactive), the GI50 (NCI-H23) was > 100 µM (inactive) and the GI50 (NCI-H460) was > 100 µM (inactive). For the same compound, the GI50 (NCI-H522) was > 100 µM (inactive), the GI50 (NCI/ADR-RES) was > 100 µM (inactive) and the GI50 (OVCAR-3) was > 100 µM (inactive). The GI50 (OVCAR-5) was > 100 µM (inactive), the GI50 (OVCAR-8) was > 100 µM (inactive) and the GI50 (PC-3) was > 100 µM (inactive). The GI50 (RPMI-8226) was > 100 µM (inactive), the GI50 (RXF 393) was > 100 µM (inactive) and the GI50 (SF-268) was > 100 µM (inactive). For the same compound, the GI50 (SF-295) was > 100 µM (inactive), the GI50 (SF-539) was > 100 µM (inactive) and the GI50 (SK-MEL-28) was > 100 µM (inactive). The GI50 (SK-MEL-2) was > 100 µM (inactive), the GI50 (SK-MEL-5) was > 100 µM (inactive) and the GI50 (SK-OV-3) was > 100 µM (inactive). The GI50 (SN12C) was > 100 µM (inactive), the GI50 (SNB-19) was > 100 µM (inactive) and the GI50 (SNB-75) was > 100 µM (inactive). The GI50 (SR) was > 100 µM (inactive), the GI50 (SW-620) was > 100 µM (inactive) and the GI50 (T47D) was > 100 µM (inactive). For the same compound, the GI50 (TK-10) was > 100 µM (inactive), the GI50 (U-251) was > 100 µM (inactive) and the GI50 (UACC-257) was > 10 µM (inactive). For the same compound, the GI50 (UACC-62) was > 100 µM (inactive) and the GI50 (UO-31) was > 100 µM (inactive).
With `COc1ccc(/C=N/n2c(=O)[nH]c3ccccc3c2=O)cc1` the GI50 (786-0) was > 100 µM (inactive), the GI50 (A498) was > 100 µM (inactive) and the GI50 (A549) was > 100 µM (inactive). The GI50 (ACHN) was > 100 µM (inactive), the GI50 (BT-549) was > 100 µM (inactive) and the GI50 (CAKI-1) was > 100 µM (inactive). The GI50 (CCRF-CEM) was > 100 µM (inactive), the GI50 (COLO 205) was > 100 µM (inactive) and the GI50 (DU-145) was > 100 µM (inactive). For the same compound, the GI50 (EKVX) was 59.8 µM (inactive), the GI50 (HCT-116) was > 100 µM (inactive) and the GI50 (HCT-15) was > 100 µM. The GI50 (HOP-62) was > 100 µM (inactive), the GI50 (HOP-92) was > 100 µM (inactive) and the GI50 (HT-29) was > 100 µM (inactive). For the same compound, the GI50 (Hs-578T) was 36.4 µM (inactive), the GI50 (IGROV-1) was > 100 µM (inactive) and the GI50 (K562) was > 100 µM (inactive). For the same compound, the GI50 (KM12) was > 100 µM (inactive), the GI50 (LOX IMVI) was > 100 µM (inactive) and the GI50 (M14) was > 100 µM (inactive). The GI50 (MCF7) was > 100 µM (inactive), the GI50 (MDA-MB-231) was > 100 µM (inactive) and the GI50 (MDA-MB-435) was > 100 µM (inactive). The GI50 (MDA-N) was > 100 µM (inactive), the GI50 (MOLT-4) was > 100 µM (inactive) and the GI50 (NCI-H226) was > 100 µM (inactive). For the same compound, the GI50 (NCI-H23) was > 100 µM (inactive), the GI50 (NCI-H460) was > 100 µM (inactive) and the GI50 (NCI/ADR-RES) was > 100 µM (inactive). For the same compound, the GI50 (OVCAR-3) was > 100 µM (inactive), the GI50 (OVCAR-5) was > 100 µM (inactive) and the GI50 (OVCAR-8) was > 100 µM (inactive). The GI50 (PC-3) was > 100 µM (inactive), the GI50 (RPMI-8226) was > 100 µM (inactive) and the GI50 (SF-268) was > 100 µM (inactive). For the same compound, the GI50 (SF-295) was > 100 µM (inactive), the GI50 (SF-539) was > 100 µM (inactive) and the GI50 (SK-MEL-28) was > 100 µM (inactive). The GI50 (SK-MEL-2) was > 100 µM (inactive), the GI50 (SK-MEL-5) was > 100 µM (inactive) and the GI50 (SK-OV-3) was > 100 µM (inactive). The GI50 (SN12C) was > 100 µM (inactive), the GI50 (SNB-19) was > 100 µM (inactive) and the GI50 (SNB-75) was 50.8 µM (inactive). The GI50 (SR) was > 100 µM (inactive), the GI50 (SW-620) was > 100 µM (inactive) and the GI50 (T47D) was > 100 µM (inactive). For the same compound, the GI50 (TK-10) was > 100 µM (inactive), the GI50 (U-251) was > 100 µM (inactive) and the GI50 (UACC-257) was > 100 µM (inactive). For the same compound, the GI50 (UACC-62) was > 100 µM (inactive) and the GI50 (UO-31) was > 100 µM (inactive).
